Experimental data published in publication PMC5831858, “Pharmacological characterisation of CR6086, a potent prostaglandin E2 receptor 4 antagonist, as a new potential disease-modifying anti-rheumatic drug” (Arthritis Research & Therapy, 2018).
Where two headings read alike, the source gives them in different places.

Key:
[1] = tested on: Cl^- channel (GABA-gated); assay: Ion channel Cl- (GABA-gated) binding; conditions: [^35S]TBPS, Rat cerebral cortex
[2] = target: 5-HT2C (Homo sapiens, UniProt P28335); assay: Serotonin receptor 5-HT2C binding; conditions: [^3H]mesulergine, Human recombinant HEK-293 cells, read-out: CR6086 Activity at 10µM
[3] = tested on: IL-23 release; assay: IL-23 release from human dendritic cells; format: cell-based; conditions: Dendritic cell, PGE2-stimulated, 24 h
Procedure: PBMCs were purified using Histopaque (Sigma-Aldrich, St. Louis, MO, USA). CD14^+ cells were positively selected in a magnetic field (magnetic-activated cell sorting [MACS]; Miltenyi Biotec, Bergisch Gladbach, Germany). Purified CD14^+ cells were subsequently cultured for 7 days in differentiation medium (RPMI 1640 + 10% FBS, granulocyte-macrophage colony-stimulating factor 50 ng/ml and IL-4 100 ng/ml) and then stimulated with LPS (10 ng/ml), R848 2.5 μg/ml and PGE2 10 nM for 24 h in the presence of CR6086 (0.01–30 μM) or naproxen (1–30 μM). IL-23 release was measured by enzyme-linked immunosorbent assay (ELISA) (R&D Systems, Minneapolis, MN, USA).

[4] = target: NK3 (Homo sapiens, UniProt P29371); assay: Neurokinin receptor NK3 binding; conditions: [^3H]SR 142801, Human recombinant CHO cells, read-out: CR6086 Activity at 10µM
[5] = target: GAL1 (Homo sapiens, UniProt P47211); assay: Galanin receptor GAL1 binding; conditions: [^125I]galanin, Human recombinant HEK-293 cells, read-out: CR6086 Activity at 10µM
[6] = tested on: PCP; assay: PCP receptor binding; conditions: [^3H]TCP, Rat cerebral cortex
[7] = target: rat EP4 receptor (Rattus norvegicus, UniProt P43114); assay: EP4 radioligand binding assay ([^3H]PGE2), rat receptor; parameters: the cDNA encoding the full-length rat (NM_032076) or mouse (NM_001136079) EP4 receptors; host or cells: HEK293 (transient)
Description: For rodent EP4 receptor cloning, the cDNA encoding the full-length rat (NM_032076) or mouse (NM_001136079) EP4 receptors cloned in pCMV6 entry was provided by OriGene Inc. (TrueORF Gold, catalogue numbers RN206839 and MC216813; OriGene, Rockville, MD, USA). Expression of rat and mouse receptors was obtained by transfecting HEK293 cells with the respective vector using Lipofectamine 3000 reagent (Thermo Fisher Scientific) according to the manufacturer’s instructions.
Membranes expressing the human EP4 receptor were prepared from stably transfected HEK293 cell line. […] Protein content of the cell membrane suspension was determined using bovine serum albumin (BSA) as a standard.
Experimental procedures were performed according to the method of Abramovitz et al.. […] The residual [^3H]PGE2 binding was determined using a solid scintillation counter (TopCount; PerkinElmer) after at least 1 h of stabilisation. In saturation binding studies, isotherm-binding curves generated with six to eight different concentrations of [^3H]PGE2 (from 0.5 to 25 nM) were evaluated. […]
Specific binding to the receptors was defined as the difference between total binding and non-specific binding, as determined in the presence of an excess of unlabelled ligand. […] Competition curves were analysed to assess the half-maximal inhibitory concentration (IC50). […] The results of replicated curves were expressed as mean ± SEM.

[8] = target: NK1 (Homo sapiens, UniProt P25103); assay: Neurokinin receptor NK1 binding; conditions: [^125I]BH-SP, U-373MG cells (endogenous), read-out: CR6086 Activity at 10µM
[9] = target: MC4 (Homo sapiens, UniProt P32245); assay: MC4 receptor binding; conditions: [^125I]NDP-α-MSH, Human recombinant CHO cells, read-out: CR6086 Activity at 10µM
[10] = target: D1 (Homo sapiens, UniProt P21728); assay: Dopamine receptor D1 binding; conditions: [^3H]SCH 23390, Human recombinant CHO cells, read-out: CR6086 Activity at 10µM
D1, sequence (P21728 whole entry): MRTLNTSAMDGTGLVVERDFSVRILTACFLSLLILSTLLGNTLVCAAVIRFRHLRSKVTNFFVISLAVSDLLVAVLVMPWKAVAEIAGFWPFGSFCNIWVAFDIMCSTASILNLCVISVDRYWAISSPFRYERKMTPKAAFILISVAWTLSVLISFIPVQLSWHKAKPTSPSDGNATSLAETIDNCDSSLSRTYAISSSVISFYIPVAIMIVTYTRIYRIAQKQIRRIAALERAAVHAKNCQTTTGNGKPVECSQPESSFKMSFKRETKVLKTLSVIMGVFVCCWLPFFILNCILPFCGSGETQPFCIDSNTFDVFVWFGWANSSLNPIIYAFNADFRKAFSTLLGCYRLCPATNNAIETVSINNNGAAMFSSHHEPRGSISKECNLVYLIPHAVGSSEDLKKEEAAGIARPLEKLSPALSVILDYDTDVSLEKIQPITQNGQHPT

rat EP4 receptor, sequence (P43114 whole entry): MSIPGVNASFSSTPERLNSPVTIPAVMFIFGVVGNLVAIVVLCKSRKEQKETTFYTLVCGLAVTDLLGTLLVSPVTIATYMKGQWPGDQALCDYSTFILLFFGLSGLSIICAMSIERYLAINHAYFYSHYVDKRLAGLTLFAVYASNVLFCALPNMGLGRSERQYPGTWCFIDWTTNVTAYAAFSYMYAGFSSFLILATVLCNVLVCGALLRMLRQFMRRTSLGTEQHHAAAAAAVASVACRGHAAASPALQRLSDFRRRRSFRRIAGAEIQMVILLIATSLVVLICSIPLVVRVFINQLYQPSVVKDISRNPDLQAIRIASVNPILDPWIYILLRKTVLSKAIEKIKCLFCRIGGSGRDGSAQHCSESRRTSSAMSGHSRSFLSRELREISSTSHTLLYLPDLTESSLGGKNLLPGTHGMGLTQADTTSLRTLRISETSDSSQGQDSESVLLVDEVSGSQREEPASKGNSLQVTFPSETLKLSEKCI
NK3, sequence (P29371 whole entry): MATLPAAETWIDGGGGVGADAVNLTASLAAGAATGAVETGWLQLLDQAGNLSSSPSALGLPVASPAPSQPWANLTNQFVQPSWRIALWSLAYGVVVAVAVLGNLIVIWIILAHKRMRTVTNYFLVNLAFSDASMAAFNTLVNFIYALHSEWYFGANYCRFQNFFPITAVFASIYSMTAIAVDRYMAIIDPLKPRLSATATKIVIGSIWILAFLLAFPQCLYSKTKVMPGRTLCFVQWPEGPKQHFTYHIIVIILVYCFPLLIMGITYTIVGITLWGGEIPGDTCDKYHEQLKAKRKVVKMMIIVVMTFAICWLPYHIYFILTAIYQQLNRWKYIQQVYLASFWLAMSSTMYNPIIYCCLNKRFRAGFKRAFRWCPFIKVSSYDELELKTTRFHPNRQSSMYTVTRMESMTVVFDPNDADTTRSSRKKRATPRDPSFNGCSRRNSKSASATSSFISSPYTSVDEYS
GAL1, sequence (P47211 whole entry): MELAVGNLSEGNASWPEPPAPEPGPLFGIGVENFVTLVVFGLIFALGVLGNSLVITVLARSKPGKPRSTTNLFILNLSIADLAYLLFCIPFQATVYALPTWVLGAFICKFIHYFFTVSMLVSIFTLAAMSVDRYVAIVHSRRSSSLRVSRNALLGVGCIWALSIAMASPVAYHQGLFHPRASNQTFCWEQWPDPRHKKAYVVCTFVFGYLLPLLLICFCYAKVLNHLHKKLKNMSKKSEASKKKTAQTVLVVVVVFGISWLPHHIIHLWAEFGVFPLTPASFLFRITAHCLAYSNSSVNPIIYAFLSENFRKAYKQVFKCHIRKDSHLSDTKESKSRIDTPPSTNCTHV
MC4, sequence (P32245 whole entry): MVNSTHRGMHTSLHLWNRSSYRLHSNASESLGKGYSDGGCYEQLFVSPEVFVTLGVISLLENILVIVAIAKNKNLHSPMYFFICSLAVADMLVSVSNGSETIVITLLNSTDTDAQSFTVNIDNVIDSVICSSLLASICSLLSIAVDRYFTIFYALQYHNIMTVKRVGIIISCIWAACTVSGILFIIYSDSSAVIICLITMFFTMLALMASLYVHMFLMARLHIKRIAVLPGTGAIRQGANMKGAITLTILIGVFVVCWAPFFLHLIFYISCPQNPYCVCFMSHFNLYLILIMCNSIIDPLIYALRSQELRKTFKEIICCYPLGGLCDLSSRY
NK1, sequence (P25103 whole entry): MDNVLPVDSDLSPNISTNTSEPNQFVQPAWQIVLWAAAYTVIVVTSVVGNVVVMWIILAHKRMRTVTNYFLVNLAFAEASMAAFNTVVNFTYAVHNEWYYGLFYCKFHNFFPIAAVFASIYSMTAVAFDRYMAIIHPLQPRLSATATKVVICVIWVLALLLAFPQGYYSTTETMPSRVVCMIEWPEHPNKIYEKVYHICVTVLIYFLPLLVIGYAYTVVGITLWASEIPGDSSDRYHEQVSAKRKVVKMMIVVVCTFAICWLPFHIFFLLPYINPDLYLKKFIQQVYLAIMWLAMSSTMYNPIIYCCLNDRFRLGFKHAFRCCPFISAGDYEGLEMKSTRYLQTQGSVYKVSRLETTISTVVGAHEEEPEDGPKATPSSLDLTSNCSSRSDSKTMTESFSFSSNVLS
5-HT2C, sequence (P28335 33-458): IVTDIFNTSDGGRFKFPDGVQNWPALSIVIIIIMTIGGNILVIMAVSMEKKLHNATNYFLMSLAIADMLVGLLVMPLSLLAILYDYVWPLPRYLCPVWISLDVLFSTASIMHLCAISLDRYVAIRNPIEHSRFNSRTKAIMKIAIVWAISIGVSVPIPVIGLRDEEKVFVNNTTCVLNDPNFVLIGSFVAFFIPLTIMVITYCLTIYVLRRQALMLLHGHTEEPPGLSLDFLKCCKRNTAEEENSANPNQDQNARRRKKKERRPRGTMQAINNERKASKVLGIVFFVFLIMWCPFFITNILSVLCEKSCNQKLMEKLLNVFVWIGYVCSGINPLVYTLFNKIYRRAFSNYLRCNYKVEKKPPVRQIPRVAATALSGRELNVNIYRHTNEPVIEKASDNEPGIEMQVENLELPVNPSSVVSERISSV

**Q.** What does the source list for `O=C([O-])c1ccc(C2(NC(=O)[C@H]3CC4(CCN3Cc3ccc(C(F)(F)F)cc3)CC4)CC2)cc1.[Na+]` [CR6086, Sodium (R)-4-(1-(6-(4-(trifluoromethyl)benzyl)-6-azaspiro[2.5]octane-5-carboxamido)cyclopropyl)benzoate]?
**A.** CR6086 Activity at 10µM [1]: IN (IN = < 20% displacement or inhibition (all tables)); inhibition at 10 µM [2]: < 20%; IC50 [3]: 608 nM; inhibition at 10 µM [4]: < 20%; inhibition at 10 µM [5]: < 20%; CR6086 Activity at 10µM [6]: IN (IN = < 20% displacement or inhibition (all tables)); Ki ([7]; [^3H]PGE2 displacement, transiently transfected HEK293 membranes, read-out: Ki CR6086): 76.6 ± 12.3 nM; Ki ([7]; expressed as mass concentration, read-out: Ki value for the rat EP4 receptor (converted)): 73.2 nM; inhibition at 10 µM [8]: < 20%; inhibition at 10 µM [9]: < 20%; inhibition at 10 µM [10]: < 20%
